Results from US20240315994A1, “SMALL MOLECULE MODULATORS OF FERROPTOSIS” (ARPEGGIO BIOSCIENCES, INC., priority 2021, published 2024).

test system: HT-1080 fibrosarcoma cells; test: HT-1080 single-concentration cell viability screen (Cell Titer Glo); type: cell-based; settings: 10 μM compound, 48 hours, duplicate, fraction of control
Source text: To identify potential covalent inhibitors of GPX4, we screened a panel of 294 diverse small molecules from the Enamine covalent inhibitor library (Catalog No. CSL-10480-0-Z-10, Enamine, Monmouth, NJ). Each compound contains either a chloroacetamide or acrylamide moiety theoretically capable of forming a covalent bond with a selenocysteine. The small molecule compounds were selected for a diversity of backbone structures. The screening protocol used the cell viability assay Cell Titer Glo® (available from Promega, Madison, WI). Cell Titer Glo® is a luminescent cell viability that determines the number of viable cells in culture by quantifying ATP, which indicates the presence of metabolically active cells. Briefly, HT-1080 fibrosarcoma cells were plated 24 hours prior to treatment with 10 µM of each compound in the screening panel. Cell Titer Glo® was used to read out cell viability after 48 hours of compound exposure. Data was collected in duplicate.
To determine whether similar molecules could offer other starting points for a medicinal chemistry campaign, we screened 95 additional compounds that contain a similar base structure to that of 8216. Briefly, HT-1080 fibrosarcoma cells were treated with 10 µM of a compound for 48 hours and cell viability was measured by Cell Titer Glo®. Data was collected in duplicate. […]

Row | Compound | Average relative cell viability
1 | O=C(CCl)N(Cc1ccccc1)c1nc(-c2ccc(Cl)cc2)cs1 [Compound Z56837054] | 0.001992
2 | CCOC(=O)c1sc(N(Cc2ccccc2)C(=O)CCl)nc1C [Compound Z56837076] | 0.004698
3 | O=C(CCl)N(CCc1ccccc1)Cc1ccccc1 [Compound Z56891378] | 0.001872
4 | O=C(CCl)N(Cc1ccccc1)c1nc(-c2ccc(Br)cc2)cs1 [Compound Z56926666] | 0.008622
5 | O=C(CCl)N(Cc1ccccc1)c1nc(-c2ccc(F)cc2)cs1 [Compound Z56946047] | 0.000624
6 | Cc1cccc(N(Cc2ccccc2)C(=O)CCl)c1 [Compound Z57052885] | 0.002244
7 | O=C(CCl)N(Cc1ccco1)C1=CCCCC1 [Compound Z89264994] | 0.01228
8 | O=C(CCl)N(Cc1cccs1)C1CCS(=O)(=O)C1 (stereo not shown) [Compound Z90122115] | 0.05782
9 | O=C(CCl)N(Cc1ccccc1)Cc1ccco1 [Compound Z108565162] | 0.005394
10 | COCCN(Cc1ccccc1)C(=O)CCl [Compound Z147647648] | 0.1007
11 | O=C(CCl)N(Cc1ccccc1)c1nc2c(s1)CCCC2 [Compound Z147647668] | 0.005838
12 | Cc1ccc2sc(N(Cc3ccccc3)C(=O)CCl)nc2c1C [Compound Z147647684] | 0.006576
13 | O=C(CCl)N(Cc1cccs1)CC1CCCO1 (stereo not shown) [Compound Z147647920] | 0.04392
14 | O=C(CCl)N(Cc1ccc(F)cc1)c1nc(-c2ccccc2)cs1 [Compound Z147647938] | 0.000936
15 | O=C(CCl)N(Cc1ccco1)C1CCS(=O)(=O)C1 (stereo not shown) [Compound Z147652330] | 0.7459
16 | O=C(CCl)N(Cc1ccccc1)c1ccccc1 [Compound Z199424090] | 0.00039
17 | O=C(CCl)N(Cc1ccccc1)Cc1ccc(F)cc1 [Compound Z381549666] | 0.001836
18 | Cc1cc(CN(C(=O)CCl)C2CCCC2)c2ccccc2n1 [Compound Z1562139496] | 0.000174
19 | O=C(CCl)N(Cc1ccccc1)CC1(O)CCOC1 (stereo not shown) [Compound Z1687602192] | 0.1445
20 | CC#CC(=O)N(Cc1ccc(-n2cncn2)cc1)C1CC1 [Compound Z2020497058] | 1.089
21 | CN(Cc1cnc(N(C)C)nc1)C(=O)CCl [Compound Z2596884436] | 0.4026
22 | O=C(CCl)N(Cc1nc2ccsc2c(=O)[nH]1)C1CC1 [Compound Z3217399415] | 1.255
23 | CN(Cc1nc2c(cnn2C)c(=O)[nH]1)C(=O)CCl [Compound Z3337549802] | 1.034

Row | Compound | Average relative cell viability
24 | O=C(CCl)N(Cc1cnn(-c2ccccc2)c1)C1CC1 [Compound Z3629871044] | 0.001764
25 | CC1(N(Cc2ccc3c(c2)OCO3)C(=O)CCl)CCCC1 [Compound Z3766260223] | 0.002238
26 | O=C(CCl)N(Cc1cccs1)C1Cc2ccccc2C1 [Compound Z3766262414] | 0.5481
27 | Cn1cc(CN(C(=O)CCl)c2ccc(F)cc2)cn1 [Compound Z3766264621] | 0.02152
28 | O=C(CCl)N(Cc1nc(C2CCCCCC2)no1)C1CC1 [Compound Z3766269910] | 0.002904
29 | CCN1CCCC(CN(C)C(=O)CCl)C1c1cnn(C)c1 (stereo not shown) [Compound Z3766270794] | 0.003474
30 | CC1(C)CC(N(Cc2ccccc2)C(=O)CCl)C(C)(C)O1 (stereo not shown) [Compound Z3766271747] | 0.005616
31 | O=C(CCl)N(Cc1ccns1)c1ccc2c(c1)OCCO2 [Compound Z3837046637] | 0.00972
32 | COc1cccc(CN(CC2CCCO2)C(=O)CCl)c1F (stereo not shown) [Compound Z3837050450] | 0.5148
33 | Cc1cc(CN(C(=O)CCl)c2ccc(F)cc2)nn1C [Compound Z3837055210] | 0.001584
34 | Cc1cc(F)ccc1N(Cc1ccnn1C(C)C)C(=O)CCl [Compound Z3837096793] | 0.1701
35 | Cc1cc(CN(Cc2ccn(C)n2)C(=O)CCl)ccc1F [Compound Z3837152585] | 0.007686
36 | Cc1csc(CN(C(=O)CCl)c2cccc(F)c2C)n1 [Compound Z3837197646] | 0.01316
37 | O=C(CCl)N(Cc1cc(F)ccc1F)CC1CCOCC1 [Compound Z3837255186] | 0.1331
38 | O=C(CCl)N(Cc1ccc(Cn2cccn2)cc1)CC1CC1 [Compound Z3837267295] | 0.002112
39 | CC(C)n1nccc1CN(CC1CCCC1)C(=O)CCl [Compound Z3837300268] | 0.00828
40 | Cc1ccc(CN(Cc2cnn(C)c2)C(=O)CCl)cc1C [Compound Z3837366035] | 0.531
41 | COc1ccc(CN(CC2CC(C)=NO2)C(=O)CCl)cc1 (stereo not shown) [Compound Z3837506617] | 0.3267
42 | COC1(CN(Cc2ccn(C)n2)C(=O)CCl)CCCCC1 [Compound Z3837644318] | 0.7407
43 | CCn1cc(CN(C(=O)CCl)C2CC2)c(C)n1 [Compound Z3887631385] | 0.7938
44 | O=C(CCl)N(Cc1ccccc1O)Cc1ccccc1O [Compound Z3952174992] | 0.1517
45 | N#Cc1ccc(CN(C(=O)CCl)C2CC2)c(F)c1 [Compound Z3952175125] | 0.8876
46 | O=C(CCl)N(CC1=CCCOC1)Cc1ccccc1 [Compound Z3952175509] | 0.03047

Row | Compound | Average relative cell viability
47 | Cn1ccc(N(Cc2ccccc2)C(=O)CCl)n1 [Compound Z4170009630] | 0.08916
48 | Cl.O=C(CCl)N(Cc1cn2ccccc2n1)C1CC1 [Compound Z4283095766] | 0.9342
49 | O=C(CCl)N(Cc1ccccc1)Cc1cc2n(n1)CCCC2 [Compound Z4323310732] | 0.05332
50 | O=C(CCl)N(Cc1noc2c1CCCC2)c1ccccc1F [Compound Z4323314193] | 0.00483
51 | Cn1nnc(CN(C(=O)CCl)C2CCCCCCC2)n1 [Compound Z4323320274] | 0.002922
52 | Cc1nn(C)c(C)c1CN(C(=O)CCl)C1CCCCC1C (stereo not shown) [Compound Z4323324870] | 0.488
53 | C=CCN1CCC(N(Cc2ccc(CC)o2)C(=O)CCl)CC1 [Compound Z4323341765] | 0.7008
54 | COc1cc(CN(C(=O)CCl)C2CCCOC2)ccc1C (stereo not shown) [Compound Z4323349920] | 0.002028
55 | Cc1ccsc1CN(C(=O)CCl)C1CCN(C(C)C)C1=O (stereo not shown) [Compound Z4323355648] | 0.5691
56 | O=C(CCl)N(Cc1ccnn1C1CCC1)C1CC=CCC1 (stereo not shown) [Compound Z4323362848] | 0.001626
57 | COc1ccc(CN(C(=O)CCl)C2CCOC(C)C2)cc1C (stereo not shown) [Compound Z4323373087] | 0.0167
58 | O=C(CCl)N(Cc1cccc2ccoc12)C1CCCOCC1 (stereo not shown) [Compound Z4323385212] | 0.003768
59 | COC1CCC(N(Cc2cc(C)oc2C)C(=O)CCl)CC1 (stereo not shown) [Compound Z4323386801] | 0.01527
60 | O=C(CCl)N(Cc1ccc2c(c1)CCC2)CC1(CCO)CC1 [Compound Z4323486432] | 0.004428
61 | O=C(CCl)N(Cc1ccc2c(c1)OCCO2)Cc1ncoc1C1CCC1 [Compound Z4425210448] | 0.00756
62 | COc1ccc2nc(CN(Cc3ccc(F)cc3)C(=O)CCl)sc2c1 [Compound Z4425210755] | 0.002562
63 | COc1nc2ccc(CN(Cc3ccc(F)cc3)C(=O)CCl)cc2s1 [Compound Z4425210756] | 0.00393
64 | O=C(CCN(Cc1ccc2c(c1)CCOC2)C(=O)CCl)NC1CCCC1 [Compound Z4425210882] | 0.1465
65 | O=C(CCl)N(CC1=CCCCC1)Cc1cc(-c2ccc(Cl)cc2)on1 [Compound Z4425210932] | 0.001926
66 | CC(C)(C)n1nnc(CN(Cc2cccc(C3CC3)c2F)C(=O)CCl)n1 [Compound Z4425210960] | 0.01925
67 | Cc1scc(CN(Cc2ccc3c(c2)OCCCO3)C(=O)CCl)c1C [Compound Z4425210974] | 0.001284
